# Reference: ChEMBL document CHEMBL1136220, “Synthesis and cytotoxic activity of A-ring modified betulinic acid derivatives” (2003)
# Assays:
# Format in all cases: functional
# SK-MEL-2 = assay: Cytotoxic activity towards M2 cells (SK-MEL-2); conditions: Homo sapiens, read-out: ED50 (the source's name)
# A549 = assay: Cytotoxic activity towards A-549 cells; conditions: Homo sapiens, read-out: ED50 (the source's name)
# B16-F10 = assay: Cytotoxic activity towards B16-F10 cells; conditions: Mus musculus, read-out: ED50 (the source's name)
Structure (SMILES),EC50 (SK-MEL-2) [µg/mL],EC50 (A549) [µg/mL],EC50 (B16-F10) [µg/mL]
COC(=O)[C@]12CC[C@@H](C(C)C)C1C1CCC3[C@]4(C)C(CC[C@@]3(C)[C@]1(C)CC2)C(C)(C)C(=O)[C@@H]1O[C@@H]14 (stereo not given in full),> 30,> 30,> 30
CC(C)[C@@H]1CC[C@]2(C(=O)O)CC[C@]3(C)C(CC[C@@H]4[C@@]5(C)C=CC(=O)C(C)(C)C5CC[C@]43C)C12 (stereo not given in full),2.29,2.89,1.75
CC(C)[C@@H]1CC[C@]2(C(=O)O)CC[C@]3(C)C(CC[C@@H]4[C@@]5(C)CC(C=O)=C(O)C(C)(C)C5CC[C@]43C)C12 (stereo not given in full),3.76,2.2,1.66
COC(=O)[C@]12CC[C@@H](C(C)C)C1C1CC[C@@H]3[C@@]4(C)C=CC(=O)C(C)(C)C4CC[C@@]3(C)[C@]1(C)CC2 (stereo not given in full),> 30,> 30,> 30
C=C(C)[C@@H]1CC[C@]2(C(=O)OC)CC[C@]3(C)C(CC[C@@H]4[C@@]5(C)CC(C=O)=C(O)C(C)(C)C5CC[C@]43C)C12 (stereo not given in full),> 30,> 30,> 30
C=C(C)[C@@H]1CC[C@]2(C(=O)OC)CC[C@]3(C)C(CC[C@@H]4[C@@]5(C)C=C(C#N)C(=O)C(C)(C)C5CC[C@]43C)C12 (stereo not given in full),2.12,4.55,3.57
COC(=O)[C@]12CC[C@@H](C(C)C)C1C1CC[C@@H]3[C@@]4(C)Cc5cnoc5C(C)(C)C4CC[C@@]3(C)[C@]1(C)CC2 (stereo not given in full),> 30,> 30,> 30
C=C(C)[C@@H]1CC[C@]2(C(=O)O)CC[C@]3(C)C(CC[C@@H]4[C@@]5(C)CC(C=O)=C(O)C(C)(C)C5CC[C@]43C)C12 (stereo not given in full),> 30,2.76,> 30
CC(C)[C@@H]1CC[C@]2(C(=O)O)CC[C@]3(C)C(CC[C@@H]4[C@@]5(C)Cc6cnoc6C(C)(C)C5CC[C@]43C)C12 (stereo not given in full),1.15,2.7,1.57
COC(=O)[C@]12CC[C@@H](C(C)C)C1C1CC[C@@H]3[C@@]4(C)C=C(C=O)C(=O)C(C)(C)C4CC[C@@]3(C)[C@]1(C)CC2 (stereo not given in full),0.73,0.31,0.29
CC(C)[C@@H]1CC[C@]2(C(=O)O)CC[C@]3(C)C(CC[C@@H]4[C@@]5(C)C=C(Cl)C(=O)C(C)(C)C5CC[C@]43C)C12 (stereo not given in full),0.13,1.01,1.55
CC(C)[C@@H]1CC[C@]2(C(=O)O)CC[C@]3(C)C(CC[C@@H]4[C@@]5(C)C=C(C#N)C(=O)C(C)(C)C5CC[C@]43C)C12 (stereo not given in full),0.81,1.32,1.43
COC(=O)[C@]12CC[C@@H](C(C)C)C1C1CC[C@@H]3[C@@]4(C)C=C(OC)C(=O)C(C)(C)C4CC[C@@]3(C)[C@]1(C)CC2 (stereo not given in full),> 30,> 30,> 30
COC(=O)[C@]12CC[C@@H](C(C)C)C1C1CC[C@@H]3[C@@]4(C)C=C(C#N)C(=O)C(C)(C)C4CC[C@@]3(C)[C@]1(C)CC2 (stereo not given in full),1.25,13,0.8
C=C(C)[C@@H]1CC[C@]2(C(=O)O)CC[C@]3(C)C(CC[C@@H]4[C@@]5(C)Cc6cnoc6C(C)(C)C5CC[C@]43C)C12 (stereo not given in full),16.6,1.54,3.11
C=C(C)[C@@H]1CC[C@]2(C(=O)OC)CC[C@]3(C)C(CC[C@@H]4[C@@]5(C)Cc6cnoc6C(C)(C)C5CC[C@]43C)C12 (stereo not given in full),> 30,> 30,> 30
CC(C)[C@@H]1CC[C@]2(C(=O)O)CC[C@]3(C)C(CC[C@@H]4[C@@]5(C)C=C(C=O)C(=O)C(C)(C)C5CC[C@]43C)C12 (stereo not given in full),0.26,0.17,0.3
COC(=O)[C@]12CC[C@@H](C(C)C)C1C1CC[C@@H]3[C@@]4(C)CC(C=O)=C(O)C(C)(C)C4CC[C@@]3(C)[C@]1(C)CC2 (stereo not given in full),> 30,> 30,> 30
COC(=O)[C@]12CC[C@@H](C(C)C)C1C1CC[C@@H]3[C@@]4(C)C=C(Cl)C(=O)C(C)(C)C4CC[C@@]3(C)[C@]1(C)CC2 (stereo not given in full),> 30,> 30,> 30
C=C(C)[C@@H]1CC[C@]2(C(=O)O)CC[C@]3(C)[C@H](CC[C@@H]4[C@@]5(C)CC[C@H](O)C(C)(C)[C@@H]5CC[C@]43C)[C@@H]12 [BETULINIC ACID],7.62,7.7,4.98
